Reference: patent publication US11208443B2, “NAF-1 derived peptides and uses thereof” (YISSUM RESEARCH DEVELOPMENT COMPANY OF THE HEBREW …, priority 2017, dated 2021)
Where two headings read alike, the source gives them in different places. Non-standard residues stand in square brackets, D forms with d. Residues, ends and D or L forms follow the SMILES beside them. No end group written: not given here. PEG8 = NCCOCCOCCOCCOCCOCCOCCOCCOCCC(=O)O

Assays:
[1] = Cell viability of malignant cells (Examples 1, 6, 10); assay type: cell-based, human
From the text: (§1) However, substitution of several amino acids to Ala drastically diminished the toxicity of these analogs.

MCF-10A cells [2] = system: MCF-10A cells
Description: The ability of the peptide having the sequence SEQ ID NO: 1 to penetrate into the cells and its effect on cells' viability was tested as following. Green fluorescein was conjugated to the peptide having SEQ ID NO: 1 (the labeled peptide is referred as PEP-FL). Then, the fluorescent peptide was incubated with normal, non-tumor epithelial cell line (MCF-10A) and malignant (MDA-MB-231) breast epithelial cells. The mitochondria of the cells were labeled red with RPA and the cells' nuclei were labeled with Hoechst 33342 (blue dye).

MDA-MB-231 cells [3] = test: Cell viability of malignant cells (Examples 1, 6, 10); assay type: cell-based, human
From the text: as §1

MDA-MB-231 cells [4] = test: Penetration of fluorescein-labeled peptide into malignant cells; assay type: cell-based, human; settings: FIG. 2, FIG. 6A
Description: (§2) To elucidate the site of action of the peptide having SEQ ID NO: 1, the peptide was labeled as described in Example 1 and incubated with normal and malignant cells (MCF-10A and MDA-MB-231 cells, respectively). […] Without being bound to any specific theory it was estimates that the peptide affects or disrupts the structure of the mitochondrial and nuclear membrane.
(§3) In addition to D-PEP peptide (SEQ ID NO:3), in which all amino acids of SEQ ID NO: 1 were substituted to D-amino acids, a peptide comprising only 3 D-amino acids was produced and has the sequence FLGVLALLGyLAVRPfLPKkKQQK (SEQ ID NO: 2, referred as 3D-PEP). This peptide, as well as D-PEP, both marked with Fluorescein, were tested for their ability to penetrate into non-tumor MCF-10A and malignant MDA-MB-231 and for their toxicity, as described in Example 3. Briefly, cells were incubated with 10 μM of each sample of the peptides for 3 h and then intensively washed. Cell fluorescence was observed by semi-confocal microscope. For cell viability measurement, cells were incubated with 10 μM or 5 μM of each one of the peptides for 5 days and then cell viability was assayed using Alamar blue assay.

MCF-10A cells [5] = test: Penetration of fluorescein-labeled peptide into non-malignant cells; assay type: cell-based; settings: FIG. 2
Description: as §2, §3

MDA-MB-231 cells [6] = test: Effect of labeled peptide on mitochondria and nuclei, confocal imaging; assay type: cell-based, human
Description: as §2

MCF-10A cells [7] = test: Effect of labeled peptide on nuclei, confocal imaging; assay type: cell-based; settings: FIG. 6C
Description: as §2

chymotrypsin = test: Stability against protease cleavage, HPLC; assay type: in vitro ADME
Description: Stability of the D-PEP, and 3D-PEP, analogs, and of PEG-N-3D-PEP and PEG-C-3D-PEP conjugates against protease cleavage (chymotrypsin and trypsin) was tested and compared to stability of the native peptide having SEQ ID NO: 1. To peptides' stocks of 430 μl in concentration of 450 μM were added 0.001 mg/ml protease (Trypsin or Chymotrypsin) and incubated in room temperature (22° C.). Samples of 40 μl were taken before adding the protease and after every 15 min in the first hour, and after 2 […] and 24 h. To stop the proteolysis samples were added 7 μl of 2% TFA in TDW. The samples were added 60 μl TDW and were analyzed using analytical HPLC.

Compound: CC(C)C[C@H](NC(=O)[C@H](C)NC(=O)[C@H](CC(C)C)NC(=O)[C@@H](NC(=O)CNC(=O)[C@H](CC(C)C)NC(=O)[C@H](Cc1ccccc1)NC(=O)CCOCCOCCOCCOCCOCCOCCOCCOCCN)C(C)C)C(=O)N[C@@H](CC(C)C)C(=O)NCC(=O)N[C@H](Cc1ccc(O)cc1)C(=O)N[C@@H](CC(C)C)C(=O)N[C@@H](C)C(=O)N[C@H](C(=O)N[C@@H](CCCNC(=N)N)C(=O)N1CCC[C@H]1C(=O)N[C@H](Cc1ccccc1)C(=O)N[C@@H](CC(C)C)C(=O)N1CCC[C@H]1C(=O)N[C@@H](CCCCN)C(=O)N[C@H](CCCCN)C(=O)N[C@@H](CCCCN)C(=O)N[C@@H](CCC(N)=O)C(=O)N[C@@H](CCC(N)=O)C(=O)N[C@@H](CCCCN)C(N)=O)C(C)C [PEG-N-3D-PEP] (H-[PEG8]FLGVLALLG[dY]LAVRP[dF]LPK[dK]KQQK-NH2; C-terminus assumed)
- cytotoxicity [1]: ~80%
- effect on viability of normal cells (MCF-10A cells [2]): much weaker effect

Compound: CC(C)C[C@H](NC(=O)[C@H](C)NC(=O)[C@H](C)NC(=O)[C@@H](NC(=O)CNC(=O)[C@H](C)NC(=O)[C@H](C)N)C(C)C)C(=O)N[C@@H](CC(C)C)C(=O)NCC(=O)N[C@@H](Cc1ccc(O)cc1)C(=O)N[C@@H](CC(C)C)C(=O)N[C@@H](C)C(=O)N[C@H](C(=O)N[C@@H](CCCNC(=N)N)C(=O)N1CCC[C@H]1C(=O)N[C@@H](Cc1ccccc1)C(=O)N[C@@H](CC(C)C)C(=O)N1CCC[C@H]1C(=O)N[C@@H](CCCCN)C(=O)N[C@@H](CCCCN)C(=O)N[C@@H](CCCCN)C(=O)N[C@@H](CCC(N)=O)C(=O)N[C@@H](CCC(N)=O)C(=O)N[C@@H](CCCCN)C(=O)O)C(C)C [PEP-F44A-L45A-L48A] (H-AAGVAALLGYLAVRPFLPKKKQQK-OH; N-terminus and C-terminus assumed)
- cytotoxic activity of alanine analogs (MDA-MB-231 cells [3]): completely lost their cytotoxic activity

Compound: PEP-FL: Green fluorescein was conjugated to the peptide having SEQ ID NO: 1 (FLGVLALLGYLAVRPFLPKKKQQK; also: green fluorescein conjugated, site not given here)
- uptake of fluorescent peptide by malignant cells (MDA-MB-231 cells [4]): preferentially up-taken by the cancer MDA-MB-231 cells
- uptake of fluorescent peptide by normal cells (MCF-10A cells [5]): not by normal cells
- effect on nuclei of malignant cells (MDA-MB-231 cells [6]; 12 hours of incubation, FIG. 6C): completely disappeared
- effect on mitochondria of malignant cells (MDA-MB-231 cells [6]; time after peptide addition, FIG. 6B): disappeared within three hours
- effect on nuclei of normal cells (MCF-10A cells [7]): no serious damage

Compound: CC(C)C[C@H](NC(=O)[C@H](C)NC(=O)[C@H](CC(C)C)NC(=O)[C@@H](NC(=O)CNC(=O)[C@H](C)NC(=O)[C@H](C)N)C(C)C)C(=O)N[C@@H](CC(C)C)C(=O)NCC(=O)N[C@@H](Cc1ccc(O)cc1)C(=O)N[C@@H](CC(C)C)C(=O)N[C@@H](C)C(=O)N[C@H](C(=O)N[C@@H](CCCNC(=N)N)C(=O)N1CCC[C@H]1C(=O)N[C@@H](Cc1ccccc1)C(=O)N[C@@H](CC(C)C)C(=O)N1CCC[C@H]1C(=O)N[C@@H](CCCCN)C(=O)N[C@@H](CCCCN)C(=O)N[C@@H](CCCCN)C(=O)N[C@@H](CCC(N)=O)C(=O)N[C@@H](CCC(N)=O)C(=O)N[C@@H](CCCCN)C(=O)O)C(C)C [PEP-F44A-L45A] (H-AAGVLALLGYLAVRPFLPKKKQQK-OH; N-terminus and C-terminus assumed)
- cytotoxic activity of alanine analogs (MDA-MB-231 cells [3]; MDA-MB-231, FIG. 18): completely lost their cytotoxic activity

Compound: CC(C)C[C@H](NC(=O)[C@H](C)NC(=O)[C@H](C)NC(=O)[C@H](C)NC(=O)[C@@H](NC(=O)CNC(=O)[C@H](CC(C)C)NC(=O)[C@@H](N)Cc1ccccc1)C(C)C)C(=O)NCC(=O)N[C@@H](Cc1ccc(O)cc1)C(=O)N[C@@H](CC(C)C)C(=O)N[C@@H](C)C(=O)N[C@H](C(=O)N[C@@H](CCCNC(=N)N)C(=O)N1CCC[C@H]1C(=O)N[C@@H](Cc1ccccc1)C(=O)N[C@@H](CC(C)C)C(=O)N1CCC[C@H]1C(=O)N[C@@H](CCCCN)C(=O)N[C@@H](CCCCN)C(=O)N[C@@H](CCCCN)C(=O)N[C@@H](CCC(N)=O)C(=O)N[C@@H](CCC(N)=O)C(=O)N[C@@H](CCCCN)C(=O)O)C(C)C [PEP-L48A-L50A] (H-FLGVAAALGYLAVRPFLPKKKQQK-OH; N-terminus and C-terminus assumed)
- cytotoxic activity of alanine analogs (MDA-MB-231 cells [3]): completely lost their cytotoxic activity

Compound: CC(C)C[C@H](NC(=O)[C@H](C)NC(=O)[C@H](CC(C)C)NC(=O)[C@@H](NC(=O)CNC(=O)[C@H](CC(C)C)NC(=O)[C@@H](N)Cc1ccccc1)C(C)C)C(=O)N[C@@H](CC(C)C)C(=O)NCC(=O)N[C@H](Cc1ccc(O)cc1)C(=O)N[C@@H](CC(C)C)C(=O)N[C@@H](C)C(=O)N[C@H](C(=O)N[C@@H](CCCNC(=N)N)C(=O)N1CCC[C@H]1C(=O)N[C@H](Cc1ccccc1)C(=O)N[C@@H](CC(C)C)C(=O)N1CCC[C@H]1C(=O)N[C@@H](CCCCN)C(=O)N[C@H](CCCCN)C(=O)N[C@@H](CCCCN)C(=O)N[C@@H](CCC(N)=O)C(=O)N[C@@H](CCC(N)=O)C(=O)N[C@@H](CCCCN)C(=O)O)C(C)C [3D-PEP, FLGVLALLGyLAVRPfLPKkKQQK] (H-FLGVLALLG[dY]LAVRP[dF]LPK[dK]KQQK-OH; N-terminus and C-terminus assumed)
- half life against chymotrypsin compared to native peptide (chymotrypsin): much longer half life

Compound: CC(C)C[C@H](NC(=O)[C@H](C)NC(=O)[C@H](CC(C)C)NC(=O)[C@@H](NC(=O)CNC(=O)[C@H](CC(C)C)NC(=O)[C@@H](N)Cc1ccccc1)C(C)C)C(=O)N[C@@H](CC(C)C)C(=O)NCC(=O)N[C@H](Cc1ccc(O)cc1)C(=O)N[C@@H](CC(C)C)C(=O)N[C@@H](C)C(=O)N[C@H](C(=O)N[C@@H](CCCNC(=N)N)C(=O)N1CCC[C@H]1C(=O)N[C@H](Cc1ccccc1)C(=O)N[C@@H](CC(C)C)C(=O)N1CCC[C@H]1C(=O)N[C@@H](CCCCN)C(=O)N[C@H](CCCCN)C(=O)N[C@@H](CCCCN)C(=O)N[C@@H](CCC(N)=O)C(=O)N[C@@H](CCC(N)=O)C(=O)N[C@@H](CCCCN)C(=O)NCCOCCOCCOCCOCCOCCOCCOCCOCCC(N)=O)C(C)C [PEG-C-3D-PEP] (H-FLGVLALLG[dY]LAVRP[dF]LPK[dK]KQQK[PEG8]-NH2; N-terminus assumed)
- cytotoxicity [1]: ~70%
- effect on viability of normal cells (MCF-10A cells [2]): much weaker effect
